In patent publication US20120053148A1, “INHIBITORS OF HEPATITIS C VIRUS” (GILEAD SCIENCES, INC., priority 2010, published 2012):
Like-named read-outs stand apart in the source and are kept apart here.

Tested on: HCV Replicon IB
Assay: HCV replicon assay in Huh-7 cells, genotype 1b (Rluc luciferase readout)
Assay type: cell-based, hepatitis C virus
Conditions: Huh-7 cells, 3 days; for inhibition at 10 µM: 72 h, 1b-Rluc replicon, read-out: Inhibition @ 10 uM in 1b-Rluc; for EC50: HCV1B replicon, read-out: EC50_HCV1B_

| Structure (SMILES) | inhibition at 10 µM (Hepatitis C virus) | EC50 (Hepatitis C virus, Huh-7, 72 h) | further results |
| --- | --- | --- | --- |
| Cc1cc(C(=O)NCc2cc(C#N)ccn2)nc2c(C(F)(F)F)cc(C3CC3)cc12 [Compound 110] | 99.9% |  |  |
| Cc1cc(C(=O)NC2CNC(C)(C)COC2)nc2c(C(F)(F)F)cc(C3CC3)cc12 (stereo not shown) [Compound 134] | 93.1% |  |  |
| Cc1cc(-c2nnc(N[C@H]3C[S@@+]([O-])C3)o2)nc2c(C(C)(C)C)cc(OCC(F)(F)F)cc12 [Compound 507] |  | 19.1 nM |  |
| C=Cc1cc(C(=O)NCc2cccs2)nc2c(C(F)(F)F)cc(-c3ccccc3)cc12 [Compound 174] | 63.6% |  |  |
| Cc1cc(C(=O)NCC2(NC(=O)OC(C)(C)C)CC2)nc2c(C(F)(F)F)cc(C3CC3)cc12 [Compound 87] | 84.5% |  |  |
| CC(C)(C)c1cc(C2CC2)cc2c(N)cc(C(=O)NCc3cnccn3)nc12 [Compound 320] |  | 1.7 nM |  |
| Cc1cc(-c2nnc(NCCCO)s2)nc2c(C(C)(C)C)cc(C3CC3)cc12 [Compound 380] |  | 12.7 nM |  |
| O=C(NCc1ccccn1)c1cc(Cl)c2cc(OC(F)F)cc(C(F)(F)F)c2n1 [Compound 194] | 99.5% |  |  |
| CC[C@]1(O)C[C@@H](Nc2nnc(-c3cc(C)c4cc(OCC(F)(F)F)cc(C(C)(C)C)c4n3)o2)C1 [Compound 478] |  | 1.48 nM |  |
| Cc1cc(C(=O)NCC(C)(C)C#N)nc2c(C(F)(F)F)cc(-c3ccccc3)cc12 [Compound 162] | 80.5% |  |  |
| CCOCCOCCOCCCNc1nnc(-c2cc(C)c3cc(C4CC4)cc(C(F)(F)F)c3n2)s1 [Compound 293] | 96% |  |  |
| Cc1cc(-c2nnc(N[C@H]3CC[C@@H](O)C3)o2)nc2c(C(C)(C)C)cc(C3CC3)cc12 [Compound 414] |  | 1.74 nM |  |
| Nc1cc(C(=O)NCC2(O)CC2)nc2c(C(F)(F)F)cc(C3CC3)cc12 [Compound 221] | 98.8% |  |  |
| CCCCNc1nnc(-c2cc(C)c3cc(C4CC4)cc(C(C)(C)C)c3n2)s1 [Compound 377] |  | 6.23 nM |  |
| Cc1cc(C(=O)NCCCO)nc2c(C(F)(F)F)cc(-c3ccccc3)cc12 [Compound 164] | 94.6% |  |  |
| Cc1cc(-c2nnc(NCCC3OCCO3)s2)nc2c(C(F)(F)F)cc(C3CC3)cc12 [Compound 294] | 99.9% |  |  |
| Cc1cc(-c2nnc(N[C@H]3C[C@](O)(C(F)F)C3)o2)nc2c(C(C)(C)C)cc(OCC(F)(F)F)cc12 [Compound 468] |  | 0.36 nM |  |
| Cc1cc(OC(F)(F)F)c2nc(C(=O)NCc3cnccn3)cc(C)c2c1 [Compound 445] |  | 257 nM |  |
| Cc1cc(-c2nnc(NC3CC(O)C3)o2)nc2c(C(C)(C)C)cc(C3CC3)cc12 (stereo not shown) [Compound 420] |  | 3.1 nM |  |
| CC(C)(C)c1cc(C2CC2)cc2c(N)cc(-c3nnc(NCCCCO)o3)nc12 [Compound 355] |  | 3.24 nM |  |
| Cc1cc(-c2nnc(NCCS(C)(=O)=O)o2)nc2c(C(F)(F)F)cc(C3CC3)cc12 [Compound 265] | 98% |  |  |
| Cc1cc(-c2nnc(NCC3COCCN3)o2)nc2c(C(F)(F)F)cc(C3CC3)cc12 (stereo not shown) [Compound 252] | 92.7% |  |  |
| Cc1cc(-c2nnc(NCC3CSCCN3)s2)nc2c(C(F)(F)F)cc(C3CC3)cc12 (stereo not shown) [Compound 312] |  | 2120 nM |  |
| CCO[C@H]1CN[C@H](CNC(=O)c2cc(N)c3cc(C4CC4)cc(C(C)(C)C)c3n2)C1 [Compound 330] |  | 19.8 nM |  |
| Nc1cc(C(=O)NCC2CS(=O)(=O)CCN2)nc2c(C(F)(F)F)cc(OC(F)F)cc12 (stereo not shown) [Compound 198] | 98.4% |  |  |

| Structure (SMILES) | inhibition at 10 µM (Hepatitis C virus) | EC50 (Hepatitis C virus, Huh-7, 72 h) | further results |
| --- | --- | --- | --- |
| Cc1cc(-c2nnc(NCCCNS(C)(=O)=O)s2)nc2c(C(F)(F)F)cc(C3CC3)cc12 [Compound 296] | 51.3% |  |  |
| Cc1cc(-c2nnc(Nc3cn[nH]c3)s2)nc2c(C(F)(F)F)cc(C3CC3)cc12 [Compound 313] |  | 10.2 nM |  |
| Cc1cc(C(=O)NC[C@@H]2COCCN2)nc2c(C(F)(F)F)cc(C3CC3(F)F)cc12 (stereo partly shown) [Compound 155] | 99.7% |  |  |
| CC(C)(C)c1cc(C2CC2)cc2c(Cl)cc(C(=O)NCC3COCCN3)nc12 (stereo not shown) [Compound 228] | 94.7% |  |  |
| Cc1cc(-c2nnc(N[C@H]3C[C@@](C)(O)C3)o2)nc2c(C(C)(C)C)cc(C3CC3)cc12 [Compound 423] |  | 1.35 nM |  |
| C#Cc1cc(OC(F)(F)F)cc2c(O)cc(C(=O)NCc3ccccn3)nc12 [Compound 237] | 21.7% |  |  |
| Cc1cc(-c2nnc(N[C@H]3CC[C@@](C)(O)C3)o2)nc2c(C(C)(C)C)cc(OCC(F)(F)F)cc12 (racemic) [Compound 474] |  | 1.02 nM |  |
| Cc1cc(C(=O)NCc2ccccn2)nc2c(C(F)(F)F)cc(OC(F)F)cc12 [Compound 187] | 99.9% |  |  |
| CC(C)(C)c1cc(C2CC2)cc2c(N)cc(C(=O)NCc3ncccn3)nc12 [Compound 319] |  | 0.81 nM |  |
| Cc1cc(-c2nnc(N[C@H]3CC[C@@](O)(CF)C3)o2)nc2c(C(C)(C)C)cc(OCC(F)(F)F)cc12 [Compound 492] |  | 19.3 nM |  |
| Cc1cc(-c2nnc(NCC[C@H](C)O)o2)nc2c(C(C)(C)C)cc(OCC(F)(F)F)cc12 [Compound 456] |  | 3.3 nM |  |
| Cc1cc(C(=O)NCC2CCCCN2C(=O)OC(C)(C)C)nc2c(C(F)(F)F)cc(C3CC3)cc12 (stereo not shown) [Compound 107] | 94.5% |  |  |
| CC(C)(C)c1cc(C2CC2)cc2c(N)cc(C(=O)NC[C@@H]3CSCN3)nc12 [Compound 336] |  | 4.45 nM |  |
| CS(=O)(=O)N1CCNC(CNC(=O)c2cc(N)c3cc(OC(F)F)cc(C(F)(F)F)c3n2)C1 (stereo not shown) [Compound 318] |  | 44400 nM |  |
| Cc1cc(C(=O)NC[C@@H]2CC3(CCN2)OCCO3)nc2c(C(C)(C)C)cc(C3CC3)cc12 [Compound 428] |  | 834 nM |  |
| Cc1cc(-c2nnc(Nc3cccnc3)o2)nc2c(C(C)(C)C)cc(OCC(C)(C)O)cc12 [Compound 537] |  | 69.1 nM |  |
| Cc1cc(-c2nnc(NC[C@H]3CCCO3)o2)nc2c(C(C)(C)C)cc(C3CC3)cc12 [Compound 397] |  | 3.17 nM |  |
| O=C(NCc1ccccn1)c1cc(Cl)c2cc(OC(F)(F)F)cc(Br)c2n1 [Compound 236] | 86.4% |  |  |
| Cc1cc(-c2nnc(Nc3cccnc3)o2)nc2c(C(C)(C)C)cc(OCC(F)(F)F)cc12 [Compound 457] |  | 4.1 nM |  |
| Cc1cc(-c2nnc(NC(C)(C)CO)o2)nc2c(C(F)(F)F)cc(C3CC3)cc12 [Compound 261] | 99.2% |  |  |
| Cc1cc(C(=O)NCCCN2CC(O)C2)nc2c(C(F)(F)F)cc(C3CC3)cc12 [Compound 126] | 90.1% |  |  |
| Cc1cc(C(=O)NCC2CCCC(=O)N2)nc2c(C(F)(F)F)cc(C3CC3)cc12 (stereo not shown) [Compound 91] | 92.7% |  |  |
| CC(C)(C)c1cc(C2CC2)cc2c(O)cc(C(=O)NCc3ccccn3)nc12 [Compound 227] | 100% |  |  |
| CCC(=O)CNC(=O)c1cc(Cl)c2cc(OC(F)F)cc(C(F)(F)F)c2n1 [Compound 205] | 99.2% |  |  |
| Cc1cc(-c2nnc(N[C@H]3C[C@@](O)(CF)C3)o2)nc2c(C(C)(C)C)cc(C3CC3)cc12 [Compound 516] |  | 7.15 nM |  |

| Structure (SMILES) | inhibition at 10 µM (Hepatitis C virus) | EC50 (Hepatitis C virus, Huh-7, 72 h) | further results |
| --- | --- | --- | --- |
| Cc1cc(-c2nnc(N[C@H]3CC[C@H](O)C3)o2)nc2c(C(C)(C)C)cc(OCC(F)(F)F)cc12 (racemic) [Compound 477] |  | 2.22 nM |  |
| Cc1cc(-c2nnc(NCC(O)CO)s2)nc2c(C(F)(F)F)cc(C3CC3)cc12 (stereo not shown) [Compound 301] | 99.6% |  |  |
| Cc1cc(-c2nnc(N[C@H]3CC[C@H](O)CC3)o2)nc2c(C(C)(C)C)cc(OCC(F)(F)F)cc12 [Compound 493] |  | 8.74 nM |  |
| COCCNC(=O)c1cc(C)c2cc(C3CC3)cc(C(F)(F)F)c2n1 [Compound 119] | 99.5% |  |  |
| COC1CN[C@H](CNC(=O)c2cc(C)c3cc(C4CC4)cc(C(F)(F)F)c3n2)C1 (single isomer, unassigned) [Compound 127] | 99.7% |  |  |
| Cc1cc(-c2nnc(NCCCCCO)s2)nc2c(C(F)(F)F)cc(C3CC3)cc12 [Compound 291] | 99.1% |  |  |
| Cc1cc(-c2nnc(NCc3ncc[nH]3)o2)nc2c(C(C)(C)C)cc(C3CC3)cc12 [Compound 394] |  | 1130 nM |  |
| CCCCNC(=O)[C@@H]1CSC(c2cc(C)c3cc(OC(F)F)cc(C(F)(F)F)c3n2)=N1 [Compound 340] |  | 3900 nM |  |
| Cc1cc(-c2nnc(NCC3COCCO3)o2)nc2c(C(F)(F)F)cc(C3CC3)cc12 (stereo not shown) [Compound 250] | 99.9% |  |  |
| Cc1cc(-c2nnc(NCCCOP(=O)(O)O)s2)nc2c(C(F)(F)F)cc(C3CC3)cc12 [Compound 287] | 99.9% |  |  |
| Cc1cc(OC(F)(F)F)c2nc(C(=O)NCc3ncccn3)cc(C)c2c1 [Compound 446] |  | 523 nM |  |
| Cc1cc(-c2nnc(NCCS(C)(=O)=O)o2)nc2c(C(C)(C)C)cc(C3CC3)cc12 [Compound 285] | 99.6% |  |  |
| O=C(NCC1CS(=O)(=O)CCN1)c1cc(Cl)c2cc(OC(F)F)cc(C(F)(F)F)c2n1 (stereo not shown) [Compound 197] | 92.8% |  |  |
| CSC(F)(F)Oc1cc(C(C)(C)C)c2nc(-c3nnc(N[C@H]4C[C@](O)(CF)C4)o3)cc(C)c2c1 [Compound 530] |  | 2.81 nM |  |
| O=C(NCc1ccccn1)c1cc(Cl)c2cc(OC(F)(F)F)cc(C(=O)O)c2n1 [Compound 241] | 7.94% |  |  |
| Nc1cc(-c2nnc(NCCCO)s2)nc2c(C(F)(F)F)cc(C3CC3)cc12 [Compound 375] |  | 9.56 nM |  |
| CCC(O)CNC(=O)c1cc(N)c2cc(C3CC3)cc(C(C)(C)C)c2n1 (stereo not shown) [Compound 326] |  | 13.8 nM |  |
| Cc1cc(-c2nnc(NCC3OCCO3)s2)nc2c(C(F)(F)F)cc(C3CC3)cc12 [Compound 297] | 100% |  |  |
| Cc1cc(C(=O)NCC2(O)CC2)nc2c(C(F)(F)F)cc(C3CC3)cc12 [Compound 97] | 98.8% |  |  |
| Cc1cc(C(=O)NCc2ccccn2)nc2c(C(F)(F)F)cc(C3OC3(C)C)cc12 (stereo not shown) [Compound 141] | 94.8% |  |  |
| Cc1cc(C(=O)NCc2ccc(C#N)cn2)nc2c(C(F)(F)F)cc(C3CC3)cc12 [Compound 112] | 99.7% |  |  |
| Cc1cc(-c2nnc(NCC(=O)N(C)C)o2)nc2c(C(C)(C)C)cc(C3CC3)cc12 [Compound 281] | 99.8% |  |  |
| Cc1cc(-c2nnc(NCC[C@H](C)O)s2)nc2c(C(C)(C)C)cc(C3CC3)cc12 [Compound 385] |  |  | EC50: 1.73 nM |
